In patent publication US10875858B2, “Process for preparing halogenated pyridine derivatives” (Bayer CropScience Aktiengesellschaft, priority 2016, dated 2020):

Test: log P by HPLC-MS
Format: physicochemical

SMILES	chromatographic logP
Cn1c(-c2nc(Cl)ccc2F)nc2cc(C(F)(F)F)ncc21 [Example 2, 2-(6-chloro-3-fluoropyridin-2-yl)-3-methyl-6-(trifluoromethyl)-3H-imidazo[4,5-c]pyridine]	2.38
COC(=O)c1ccc(F)c(-c2nc3cc(C(F)(F)F)ncc3n2C)n1 [Example 3, methyl 5-fluoro-6-[3-methyl-6-(trifluoromethyl)-3H-imidazo[4,5-c]pyridin-2-yl]pyridine-2-carboxylate]	2.03
Cn1c(-c2nc(Br)ccc2F)nc2cc(C(F)(F)F)ncc21 [Example 4, 2-(6-bromo-3-fluoropyridin-2-yl)-3-methyl-6-(trifluoromethyl)-3H-imidazo[4,5-c]pyridine]	2.51
Cn1cnc2cc(C(F)(F)F)nnc21 [Example 5, 7-methyl-3-(trifluoromethyl)-7H-imidazo[4,5-c]pyridazine]	0.95
Cn1c(-c2nc(Cl)ccc2F)nc2cc(C(F)(F)F)nnc21 [Example 6, 6-(6-chloro-3-fluoropyridin-2-yl)-7-methyl-3-(trifluoromethyl)-7H-imidazo[4,5-c]pyridazine]	2.46
COC(=O)c1ccc(F)c(-c2nc3cc(C(F)(F)F)nnc3n2C)n1 [Example 7, methyl 5-fluoro-6-[7-methyl-3-(trifluoromethyl)-7H-imidazo[4,5-c]pyridazin-6-yl]pyridine-2-carboxylate]	2.09
Cn1c(-c2nc(Br)ccc2F)nc2cc(C(F)(F)F)nnc21 [Example 8, 6-(6-bromo-3-fluoropyridin-2-yl)-7-methyl-3-(trifluoromethyl)-7H-imidazo[4,5-c]pyridazine]	2.58
